According to article PMC5639204, “Structures of Leishmania Fructose-1,6-Bisphosphatase Reveal Species-Specific Differences in the Mechanism of Allosteric Inhibition” (Journal of Molecular Biology, 2017):

Experiments:
[1] = target: T1, fructose-1,6-bisphosphatase (LmFBPase) (Leishmania major, UniProt O97193); assay: PGI/G6PDH coupled enzyme activity assay; assay type: biochemical
T1 construct: gene FBP; C-terminal His6-tagged LmFBPase

[2] = target: T2, fructose-1,6-bisphosphatase (LmFBPase) (Leishmania major, UniProt O97193); assay: co-crystal structure ([…] Å) with F6P; coupled enzyme assay Ki; assay type: biochemical; set-up: gene FBP; C-terminal His6-tagged LmFBPase, homotetramer
T2 sequence (O97193 1-351): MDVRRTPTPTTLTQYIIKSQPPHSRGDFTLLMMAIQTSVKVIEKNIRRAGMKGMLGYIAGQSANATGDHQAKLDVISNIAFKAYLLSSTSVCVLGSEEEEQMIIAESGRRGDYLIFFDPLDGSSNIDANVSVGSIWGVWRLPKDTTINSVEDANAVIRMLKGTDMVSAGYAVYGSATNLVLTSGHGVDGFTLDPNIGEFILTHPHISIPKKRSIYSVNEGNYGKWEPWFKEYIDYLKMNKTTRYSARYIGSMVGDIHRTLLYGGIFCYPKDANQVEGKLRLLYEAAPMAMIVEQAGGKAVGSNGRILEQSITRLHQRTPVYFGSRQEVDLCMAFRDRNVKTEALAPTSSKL

[3] = target: T2, fructose-1,6-bisphosphatase (LmFBPase); assay: co-crystal structure ([…] Å) with AMP; thermal shift; assay type: binding; set-up: gene FBP; C-terminal His6-tagged LmFBPase, homotetramer
[4] = target: T2, fructose-1,6-bisphosphatase (LmFBPase); set-up: gene FBP

O=P(O)(O)OC[C@H]1O[C@@](CO)(OP(=O)(O)O)[C@@H](O)[C@@H]1O [Fructose 2,6-bisphosphate]
Ki [1]: 1.9 µM

Nc1ncnc2c1ncn2[C@@H]1O[C@H](COP(=O)(O)O)[C@@H](O)[C@H]1O [AMP]
Ki [2]: 63.8 µM

O=P(O)(O)OC[C@H]1OC(O)(CO)[C@@H](O)[C@@H]1O (stereo partly shown) [fructose 6-phosphate]
co-crystal structure (2.62 Å) with AMP; thermal shift [3]: The catalytic product F6P was found in each of the active sites of the four subunits

O=P(O)(O)O [phosphate]
co-crystal structure (2.8 Å) with Mn2+ [4]: a catalytic product Pi and manganese atoms were found in each active site
